Data from patent publication US20190000860A1, “USE OF COMPOSITIONS MODULATING CHROMATIN STRUCTURE FOR GRAFT VERSUS HOST DISEASE (GVHD)” (Dana-Farber Cancer Institute, Inc., priority 2014, published 2019).

Key:
[1] = test system: germinal center B cells; assay: Germinal center B cells in cGVHD mice; format: in vivo, mouse (B10.BR recipients); conditions: for germinal center B cells in the spleens: Table 3 experiment, Bcl6 peptidomimetic every day, Day 28-56 (FIG. 12)
Experimental: (§1) B10.BR recipients were conditioned with cytoxan on days −3 and −2 (120 mg/kg/day i.p.). On day −1, recipients received TBI by x-ray (8.3 Gy). B6 donor BM was T-cell depleted with anti-Thy1.2 mAb followed by rabbit complement. T-cells were purified from spleens by incubation with biotin-labeled anti-CD19, anti-CD11b, anti-CD11c, anti-NK1.1 and anti-γδTCR (eBioscience), followed by strepavidin beads and depletion with magnetic column (StemCell Technologies). On day 0, recipients received 10×10^6 T cell depleted BM cells with or without allogeneic spleen purified T cells (0.075-0.1×106), Weights of individual mice were recorded weekly. Where indicated, recipients in BM and T cell groups were given EZH2 inhibitor (either JQ-EZH2-5 (75 μg/animal/3 times a week) or JQ1 (50 μg/animal/Daily) in 10% Hydroxypropyl-beta-cyclodextrin and DMSO in a 9:[…]) in PBS.
(§2) In particular, B10.BR mice were conditioned with 120 mg/Kg of cyclophosphamide on day −3 and −2 and subjected to total body irradiation (830X) on day −1. On Day 0 mice were transplanted with wild type B6 bone marrow with or without splenocytes or purified splenic T cells. Day 28 following transplantation, mice were either given vehicle control or JQ5 (75 mg/Kg 3× a week) until day 56. On Day 60 mice were subjected to forced oscillation technique on the Scireq Flexivent system. Tissues were harvested and analyzed for collagen deposition by trichrome staining, Ig deposition, presence of germinal centers, germinal center B cells, and T follicular helper cells.
Pulmonary function tests were performed on animals treated with Bcl 79-6. The presence of Germinal Center B cells and fibrosis in lungs were also assessed. B10.BR mice were conditioned with 120 mg/Kg of cyclophosphamide on day −3 and −2 and subjected to total body irradiation (830X) on day −1. […] Tissues were harvested and analyzed for collagen deposition by trichrome staining, Ig deposition, presence of germinal centers, germinal center B cells and T follicular helper cells.

[2] = test system: mice with cGVHD; format: in vivo; conditions: for survival after 60 days: mice given BM and T-cells, treatment began 28 days post-transplant (Day 28-56), JQ5 or UNC1999 75 mg/Kg 3 days a week, Bcl6 peptidomimetic every day (Table 3, FIG. 8)
Experimental: as §1, with “([…])” for “(75 μg/animal/3 times a week)”
Animals in this experiment were transplanted with wild-type BM and T-cells and then treated with either Vehicle, EZH2 inhibitor (JQ5 or UNC1999) or Bcl6 inhibitor. Administration of UNC1999 was toxic, resulting in less than 40% survival 63 days post-transplant. (FIG. 8).

[3] = test system: mice with cGVHD; assay: Pulmonary function tests (lung resistance, elastance, compliance; forced oscillation technique, Scireq Flexivent); format: in vivo, mouse (B10.BR recipients)
[4] = test system: mice with cGVHD; assay: as above; format: in vivo, mouse (B10.BR recipients); remark: listed apart in the source
Experimental: B10.BR recipients were conditioned with cytoxan on days −3 and −2 (120 mg/kg/day i.p.). On day −1, recipients received TBI by x-ray (8.3 Gy). B6 donor BM was T-cell depleted with anti-Thy1.2 mAb followed by rabbit complement. T-cells were purified from spleens by incubation with biotin-labeled anti-CD19, anti-CD11b, anti-CD11c, anti-NK1.1 and anti-γδTCR (eBioscience), followed by strepavidin beads and depletion with magnetic column (StemCell Technologies). On day 0, recipients received 10×10^6 T cell depleted BM cells with or without allogeneic spleen purified T cells (0.075-0.1×106), Weights of individual mice were recorded weekly. Where indicated, recipients in BM and T cell groups were given EZH2 inhibitor (either JQ-EZH2-5 (75 μg/animal/3 times a week) or JQ1 (50 μg/animal/Daily) in 10% Hydroxypropyl-beta-cyclodextrin and DMSO in a 9:1 ratio) or Bcl 79-6 (50 μg/animal/three times a week) in PBS.
as §2
as §2, with “Pulmonary function tests were performed on animals treated with Bcl 79-6. The presence of Germinal Center B cells and fibrosis in lungs were also assessed.” for “In particular,”, “Wild Type” for “wild type”, “Bone” for “bone”, “Bcl6 79-6 (50” for “JQ5 (75”, “Daily)” for “3× a week)”, “cells” for “cells,”

[5] = test system: mice with cGVHD; assay: Collagen deposition in the lungs (trichrome staining); format: in vivo, mouse (B10.BR recipients); conditions: for collagen deposition in the lungs vs Vehicle-treated mice: Table 3 experiment, treatment Day 28-56, JQ5 75 mg/Kg 3 days a week, Bcl6 peptidomimetic every day (FIG. 10, 13)
Experimental: as §1, §2
as §2, with “Pulmonary function tests were performed on animals treated with Bcl 79-6. The presence of Germinal Center B cells and fibrosis in lungs were also assessed.” for “In particular,”, “Wild Type” for “wild type”, “Bone” for “bone”, “Bcl6 79-6 (50” for “JQ5 (75”, “Daily)” for “3× a week)”, “cells” for “cells,”

[6] = Table 6 experiment, Bcl6 79-6 50 mg/Kg Daily, day 28 until day 56 (FIG. 19), 50 mg/kg
[7] = Table 6 experiment, Bcl6 79-6 50 mg/Kg Daily, day 28 until day 56, measured Day 60 (FIG. 19)
[8] = additional experiments (not shown), JQ1 treatment

SMILES: O=C(O)CC(C(=O)O)N1C(=O)/C(=C2/C(=O)Nc3ccc(Br)cc32)SC1=S (stereo not shown) [79-6]
- germinal center B cells in the spleens [1]: reduction
- germinal center B cells in the spleens ([1]; listed as Bcl6 79-6): decreased germinal center B cells
- Germinal Center B cells [1, 6]: decreased Germinal Center B cells
- survival after 60 days [2]: 100%
- lung compliance [3, 7]: increase
- lung elastance [3, 7]: decrease
- lung resistance [3, 7]: decrease
- pulmonary function [3, 7]: Restored pulmonary function
- pulmonary function (lung resistance, elastance and compliance) vs Vehicle-treated mice ([4]; Table 3 experiment, treatment Day 28-56, JQ5 75 mg/Kg 3 days a week, Bcl6 peptidomimetic every day (FIG. 9, 11)): improved pulmonary function
- collagen deposition in the lungs vs Vehicle-treated mice [5]: decreased
- collagen deposition in the lungs vs Vehicle-treated mice ([5]; listed as Bcl6 79-6): decreased collagen deposition
- collagen in Trichrome staining (lungs) [5, 6]: decreased collagen

SMILES: Cc1sc2c(c1C)C(c1ccc(Cl)cc1)=N[C@@H](CC(=O)OC(C)(C)C)c1nnc(C)n1-2 [JQ1]
- pulmonary function vs Vehicle-treated control mice ([3]; Table 4 experiment, JQ1 50 mg/Kg Daily, Day 28-56 (FIG. 14), 50 mg/kg): improves pulmonary function
- compliance in pulmonary function tests vs vehicle-treated control animals [4, 8]: significantly increased
- elastance in pulmonary function tests vs vehicle-treated control animals [4, 8]: decreased
- resistance in pulmonary function tests vs vehicle-treated control animals [4, 8]: decreased
- collagen deposition in the lungs vs Vehicle-treated control mice ([5]; Table 4 experiment, JQ1 50 mg/Kg Daily, Day 28-56 (FIG. 15), 50 mg/kg): decreased collagen deposition

SMILES: CCCc1cc(C)[nH]c(=O)c1CNC(=O)c1cc(-c2ccc(N3CCN(C(C)C)CC3)nc2)cc2c1cnn2C(C)C [UNC1999]
- survival after 60 days [2]: < 40%
- survival 63 days post-transplant ([2]; mice given wild-type BM and T-cells, 75 mg/KG UNC1999 3 days a week, Day 28-56 (Table 3, FIG. 8)): less than 40%
